PMC11738990, “A small-molecule TNIK inhibitor targets fibrosis in preclinical and clinical models” (Nature Biotechnology, 2024)
Like-named read-outs stand apart in the source and are kept apart here.

System: A549 cells
Details: for E-Cadherin/GAPDH normalized: DMSO=1; for N-Cadherin/GAPDH normalized / Smad2/3/GAPDH normalized / p- Smad2/3/GAPDH normalized / b-catenin/ HDAC2 normalized / b-catenin/ Histone 3 normalized / b-catenin/ tubulin normalized: TGF-β=1; for P65/GAPDH normalized / p-P65/GAPDH normalized: TGF-β+TNF-a=1
[1] = 0.1 μM, TGF-β+TNF-a group, Batch 1
[2] = 0.1 μM, TGF-β+TNF-a group, Batch 2
[3] = 0.1 μM, TGF-β+TNF-a group, Batch 3
[4] = 0.3 μM, TGF-β+TNF-a group, Batch 1
[5] = 0.3 μM, TGF-β+TNF-a group, Batch 2
[6] = 0.3 μM, TGF-β+TNF-a group, Batch 3
[7] = 1 μM, TGF-β+TNF-a group, Batch 1
[8] = 1 μM, TGF-β+TNF-a group, Batch 2
[9] = 1 μM, TGF-β+TNF-a group, Batch 3
[10] = 3 μM, TGF-β+TNF-a group, Batch 1
[11] = 3 μM, TGF-β+TNF-a group, Batch 2
[12] = 3 μM, TGF-β+TNF-a group, Batch 3

CC(C)n1cnc(-c2ccc(F)cc2)c1-c1nc(C(=O)Nc2ccc(N3CCN(C)CC3)cc2)c[nH]1 [INS018_055, 2-[4-(4-fluorophenyl)-1-(prop-2-yl)imidazol-5-yl]-N-[4-(4-methylhexahydropyrazin-1-yl)phenyl]-1H-imidazole-4-carboxamide]
E-Cadherin/GAPDH normalized (0.1 μM, Batch 1): 0.882
N-Cadherin/GAPDH normalized (0.1 μM, Batch 1): 0.7004
Smad2/3/GAPDH normalized (0.1 μM, Batch 1): 1.169
p- Smad2/3/GAPDH normalized (0.1 μM, Batch 1): 0.1198
E-Cadherin/GAPDH normalized (0.1 μM, Batch 2): 0.7553
N-Cadherin/GAPDH normalized (0.1 μM, Batch 2): 0.5859
Smad2/3/GAPDH normalized (0.1 μM, Batch 2): 1.386
b-catenin/ HDAC2 normalized (0.1 μM, Batch 2): 0.9011
b-catenin/ Histone 3 normalized (0.1 μM, Batch 2): 1.011
b-catenin/ tubulin normalized (0.1 μM, Batch 2): 0.7986
p- Smad2/3/GAPDH normalized (0.1 μM, Batch 2): 0.1997
E-Cadherin/GAPDH normalized (0.1 μM, Batch 3): 1.033
N-Cadherin/GAPDH normalized (0.1 μM, Batch 3): 0.3543
Smad2/3/GAPDH normalized (0.1 μM, Batch 3): 0.9832
b-catenin/ HDAC2 normalized (0.1 μM, Batch 3): 0.6944
b-catenin/ Histone 3 normalized (0.1 μM, Batch 3): 1.35
b-catenin/ tubulin normalized (0.1 μM, Batch 3): 1.101
p- Smad2/3/GAPDH normalized (0.1 μM, Batch 3): 0.212
b-catenin/ HDAC2 normalized (0.1 μM, Batch 4): 1.905
b-catenin/ Histone 3 normalized (0.1 μM, Batch 4): 0.9078
b-catenin/ tubulin normalized (0.1 μM, Batch 4): 1.377
P65/GAPDH normalized (0.1 μM, TGF-β group, Batch 1): 0.4666
p-P65/GAPDH normalized (0.1 μM, TGF-β group, Batch 1): 0.1387
P65/GAPDH normalized (0.1 μM, TGF-β group, Batch 2): 0.8513
p-P65/GAPDH normalized (0.1 μM, TGF-β group, Batch 2): 0.05722
P65/GAPDH normalized (0.1 μM, TGF-β group, Batch 3): 0.4658
p-P65/GAPDH normalized (0.1 μM, TGF-β group, Batch 3): 0.04967
P65/GAPDH normalized [1]: 0.668
p-P65/GAPDH normalized [1]: 0.6884
P65/GAPDH normalized [2]: 0.75
p-P65/GAPDH normalized [2]: 0.7416
P65/GAPDH normalized [3]: 0.4563
p-P65/GAPDH normalized [3]: 0.5057
E-Cadherin/GAPDH normalized (0.3 μM, Batch 1): 1.52
N-Cadherin/GAPDH normalized (0.3 μM, Batch 1): 0.1615
Smad2/3/GAPDH normalized (0.3 μM, Batch 1): 1.047
p- Smad2/3/GAPDH normalized (0.3 μM, Batch 1): 0.03
E-Cadherin/GAPDH normalized (0.3 μM, Batch 2): 1.01
N-Cadherin/GAPDH normalized (0.3 μM, Batch 2): 0.2158
Smad2/3/GAPDH normalized (0.3 μM, Batch 2): 1.249
b-catenin/ HDAC2 normalized (0.3 μM, Batch 2): 0.8061
b-catenin/ Histone 3 normalized (0.3 μM, Batch 2): 0.5919
b-catenin/ tubulin normalized (0.3 μM, Batch 2): 0.4991
p- Smad2/3/GAPDH normalized (0.3 μM, Batch 2): 0.1456
E-Cadherin/GAPDH normalized (0.3 μM, Batch 3): 0.9712
N-Cadherin/GAPDH normalized (0.3 μM, Batch 3): 0.1387
Smad2/3/GAPDH normalized (0.3 μM, Batch 3): 1.033
b-catenin/ HDAC2 normalized (0.3 μM, Batch 3): 0.9297
b-catenin/ Histone 3 normalized (0.3 μM, Batch 3): 0.5389
b-catenin/ tubulin normalized (0.3 μM, Batch 3): 1.411
p- Smad2/3/GAPDH normalized (0.3 μM, Batch 3): 0.1442
b-catenin/ HDAC2 normalized (0.3 μM, Batch 4): 0.672
b-catenin/ Histone 3 normalized (0.3 μM, Batch 4): 0.7931
b-catenin/ tubulin normalized (0.3 μM, Batch 4): 1.498
P65/GAPDH normalized (0.3 μM, TGF-β group, Batch 1): 0.4013
p-P65/GAPDH normalized (0.3 μM, TGF-β group, Batch 1): 0.07454
P65/GAPDH normalized (0.3 μM, TGF-β group, Batch 2): 0.8627
p-P65/GAPDH normalized (0.3 μM, TGF-β group, Batch 2): 0.05473
P65/GAPDH normalized (0.3 μM, TGF-β group, Batch 3): 0.4505
p-P65/GAPDH normalized (0.3 μM, TGF-β group, Batch 3): 0.04515
P65/GAPDH normalized [4]: 0.6352
p-P65/GAPDH normalized [4]: 0.6859
P65/GAPDH normalized [5]: 0.8628
p-P65/GAPDH normalized [5]: 0.7296
P65/GAPDH normalized [6]: 0.342
p-P65/GAPDH normalized [6]: 0.3802
E-Cadherin/GAPDH normalized (1 μM, Batch 1): 1.5017
N-Cadherin/GAPDH normalized (1 μM, Batch 1): 0.1538
Smad2/3/GAPDH normalized (1 μM, Batch 1): 1.22
p- Smad2/3/GAPDH normalized (1 μM, Batch 1): 0.02816
E-Cadherin/GAPDH normalized (1 μM, Batch 2): 1.0948
N-Cadherin/GAPDH normalized (1 μM, Batch 2): 0.1737
Smad2/3/GAPDH normalized (1 μM, Batch 2): 1.233
b-catenin/ HDAC2 normalized (1 μM, Batch 2): 0.9055
b-catenin/ Histone 3 normalized (1 μM, Batch 2): 0.7183
b-catenin/ tubulin normalized (1 μM, Batch 2): 0.408
p- Smad2/3/GAPDH normalized (1 μM, Batch 2): 0.1116
E-Cadherin/GAPDH normalized (1 μM, Batch 3): 1.05
N-Cadherin/GAPDH normalized (1 μM, Batch 3): 0.09916
Smad2/3/GAPDH normalized (1 μM, Batch 3): 1.054
b-catenin/ HDAC2 normalized (1 μM, Batch 3): 0.9651
b-catenin/ Histone 3 normalized (1 μM, Batch 3): 0.7434
b-catenin/ tubulin normalized (1 μM, Batch 3): 0.8806
p- Smad2/3/GAPDH normalized (1 μM, Batch 3): 0.1186
b-catenin/ HDAC2 normalized (1 μM, Batch 4): 1.855
b-catenin/ Histone 3 normalized (1 μM, Batch 4): 0.679
b-catenin/ tubulin normalized (1 μM, Batch 4): 1.374
P65/GAPDH normalized (1 μM, TGF-β group, Batch 1): 0.3482
p-P65/GAPDH normalized (1 μM, TGF-β group, Batch 1): 0.05447
P65/GAPDH normalized (1 μM, TGF-β group, Batch 2): 0.9166
p-P65/GAPDH normalized (1 μM, TGF-β group, Batch 2): 0.06504
P65/GAPDH normalized (1 μM, TGF-β group, Batch 3): 0.4988
p-P65/GAPDH normalized (1 μM, TGF-β group, Batch 3): 0.05557
P65/GAPDH normalized [7]: 0.397
p-P65/GAPDH normalized [7]: 0.497
P65/GAPDH normalized [8]: 0.7304
p-P65/GAPDH normalized [8]: 0.6585
P65/GAPDH normalized [9]: 0.3751
p-P65/GAPDH normalized [9]: 0.3266
E-Cadherin/GAPDH normalized (3 μM, Batch 1): 1.832
N-Cadherin/GAPDH normalized (3 μM, Batch 1): 0.1802
Smad2/3/GAPDH normalized (3 μM, Batch 1): 1.447
p- Smad2/3/GAPDH normalized (3 μM, Batch 1): 0.01636
E-Cadherin/GAPDH normalized (3 μM, Batch 2): 1.252
N-Cadherin/GAPDH normalized (3 μM, Batch 2): 0.1613
Smad2/3/GAPDH normalized (3 μM, Batch 2): 1.278
b-catenin/ HDAC2 normalized (3 μM, Batch 2): 1.403
b-catenin/ Histone 3 normalized (3 μM, Batch 2): 0.21
b-catenin/ tubulin normalized (3 μM, Batch 2): 0.2321
p- Smad2/3/GAPDH normalized (3 μM, Batch 2): 0.09113
E-Cadherin/GAPDH normalized (3 μM, Batch 3): 1.09
N-Cadherin/GAPDH normalized (3 μM, Batch 3): 0.0841
Smad2/3/GAPDH normalized (3 μM, Batch 3): 1.0906
b-catenin/ HDAC2 normalized (3 μM, Batch 3): 0.958
b-catenin/ Histone 3 normalized (3 μM, Batch 3): 0.258
b-catenin/ tubulin normalized (3 μM, Batch 3): 1.067
p- Smad2/3/GAPDH normalized (3 μM, Batch 3): 0.09865
b-catenin/ HDAC2 normalized (3 μM, Batch 4): 2.079
b-catenin/ Histone 3 normalized (3 μM, Batch 4): 0.1136
b-catenin/ tubulin normalized (3 μM, Batch 4): 1.238
P65/GAPDH normalized (3 μM, TGF-β group, Batch 1): 0.5411
p-P65/GAPDH normalized (3 μM, TGF-β group, Batch 1): 0.07665
P65/GAPDH normalized (3 μM, TGF-β group, Batch 2): 0.9083
p-P65/GAPDH normalized (3 μM, TGF-β group, Batch 2): 0.116
P65/GAPDH normalized (3 μM, TGF-β group, Batch 3): 0.5638
p-P65/GAPDH normalized (3 μM, TGF-β group, Batch 3): 0.08352
P65/GAPDH normalized [10]: 0.3919
p-P65/GAPDH normalized [10]: 0.3522
P65/GAPDH normalized [11]: 0.5755
p-P65/GAPDH normalized [11]: 0.6038
P65/GAPDH normalized [12]: 0.3478
p-P65/GAPDH normalized [12]: 0.3112
